Assay results: patent US20250032581A1, “COMPOSITIONS AND ARTICLES COMPRISING AN ADNF POLYPEPTIDE” (RAMOT AT TEL-AVIV UNIVERSITY LTD., priority 2021, published 2025)

Legend:
Assay type in all cases: cell-based, mouse
[1] = tested on: differentiated N1E-115 cells expressing RFP-tagged EB3; assay: Live imaging of EB3 comet-like structures (MT dynamics); conditions: 10^−12M, 4 hrs, vs. non-treated control; no significant differences between NAP and SKIP
Text: Plasmid construction—Protein expressing plasmids were constructed as previously described based on pEGFP-C1 backbone and express full-length ADNP or the following truncated ADNP proteins: p.Glu830synfs*83, p.Lys408Valfs*31, p.Ser404* (as before). Inserts of cDNA carrying unique mutations were obtained from mRNA extracted from patient-derived lymphoblastoid cell lines and cDNA with full-length human ADNP was obtained from a control lymphoblastoid cell line with no mutation. Protein expressions were verified by fluorescent imaging and immunoblotting analysis as before.
(§1) Cell culture—Mouse neuroblastoma NIE-115 cells were maintained in Dulbecco's modified Eagle's medium, 10% fetal bovine serum, 2 mM glutamine and 100 U ml-1 penicillin, 100 mg ml-1 streptomycin (Biological Industries, Beit Haemek, Israel). The cells were incubated in 9 5% air/5% CO2 in a humidified incubator at 37° C.
(§2) Cell differentiation and co-transfection of overexpression plasmids—Cultured NIE-115 cells were plated on 35 mm dishes (81156, 60 p-Dish, Ibidi, Martinsried, Germany) at a concentration of 1.25×10^4 cells per dish and then were differentiated with reduced fetal bovine serum (2%) and DMSO (1.25%) containing medium for 5 days before transfection. 48 hrs before experiments N1E-115 cells were co-transfected with 1 μg EB3-RFP or mCherry-Tau (3R) plasmid with or without 2 μg of plasmids, coding to GFP conjugated to full-length human ADNP, or ADNP carried mutations. 1:3 ratios between total amount of transfected DNA and transfection reagent were used according to manufacture guidance (Lipofectamine2000, Thermo Fisher Scientific, Waltham, MA, USA) in all subsequent experiments.
Live Imaging—48 hrs after transfection, differentiated NIE-115 cells (expressing EB3-RFP with or without GFP-conjugated to full-length ADNP or mutated ADNP) were incubated at 37° C. with a 5% CO2/95% air mixture in a thermostatic chamber placed on the stage of a Leica TCS SP5 confocal microscope (objective 100× (PL Apo) oil immersion, NA 1.4). Time-lapse images were automatically captured 3 sec during 1 min, using the Leica LAS AF software. After imaging all samples were also treated with NAP (SEQ ID NO: 2) or SKIP (SEQ ID NO: 21) in final concentrations of 10^−12M, and after 4 hrs time-lapse imaging was done again under the same conditions. Data was collected and analyzed by Imaris software.
To evaluate the effect of ADNP truncated proteins on MT dynamics time-lapse imaging of EB3 comet-like structures formed by RFP-tagged EB3 proteins that bind to MT plus-ends was performed. Two parameters of EB3 activity were used to assess MT dynamics—track length and track speed of EB3 comets, which reflect the length of freshly growing MTs and the speed of MT assembly, respectively. Furthermore, the present inventors aimed to determine whether NAP ([…] for 4 hrs) could prevent the deleterious effect of ADNP mutations.

[2] = tested on: Tau-MT interaction in differentiated N1E-115 cells; assay: Fluorescence recovery after photobleaching (FRAP) of mCherry-Tau; conditions: zinc 400 μM, 1 h; peptide 10^−12M
Description: as §1, §2
Fluorescence recovery after photobleaching (FRAP)—Differentiated NIE-115 cells were transfected with mCherry-Tau with or without GFP-conjugated to full-length ADNP or mutated ADNP, and imaged 48 hrs after transfection. An ROI for photobleaching was drowned in the proximal cell branches. mCherry-Tau was bleached with a […], and fluorescence recovery was collected within wavelengths of 610-650 nm. 80 images were taken every 0.74 sec immediately after bleaching. After FRAP imaging all samples were also treated with NAP in final concentrations of 10^−12M, and after 4 hrs time-lapse imaging was done again under the same conditions. FRAP imaging for assessment difference between NAP and SKIP (SEQ ID NO: 21) activity was performed after an hour of ZnCl2 treatment (400 μM final concentration; Sigma, Rehovot, Israel) with or without NAP/SKIP (10^−12M final concentration). Fluorescence signals were quantified with Fiji, obtained data were normalized with easyFRAP [82, 83] and FRAP recovery curves were fitted by a one-phase exponential association function by GraphPad Prism6 (GraphPad Software, Inc., La Jolla, CA, USA) while samples with R^2<0.9 were excluded.
Next, the effect of full-length/truncated ADNP forms with or without NAP treatment on Tau-MT interaction was examined by fluorescence recovery after photobleaching (FRAP) (FIGS. 8A-C). FRAP was performed with mCherry-tagged Tau protein (FIG. 8A). […] Therefore, the immobile mCherry-Tau fraction reflects the rate of Tau association with MTs.

[3] = tested on: Tau, tubulin; assay: Polymerized vs. soluble tubulin assay; conditions: zinc 400 μM, 4 h, peptide 10^−12M
Description: Polymerized vs. soluble tubulin assay—To quantify tubulin polymerization and Tau-MT association, a simple assay was performed as previously described. The cells grown to confluence in six-well plates were washed with MT buffer (80 mM PIPES pH 6.8, 1 mM MgCl^2, 2 mM EGTA, 5% Glycerol) and lysed at room temperature for 5 min through centrifugation (300 g), with 150 μl of MT buffer with 0.5% Triton X-100 to extract soluble (cytosolic) tubulin (S). The pelleted cells were rinsed once again with an equal volume of modified RIPA lysis buffer (50 mM Tris-HCL pH 7.4, 150 mM NaCl, 2 mM EGTA, 1% Triton X-100, 0. 1% SDS, 0.1% sodium Deoxycholate) to collect the polymerized (cytoskeletal) tubulin (P). The cytosolic and cytoskeletal fractions were each mixed with sample buffer and heated at 95° C. for 5 min. An equal volume of each fraction was analyzed by immunoblotting with Tau, tubulin and actin antibodies, and the results following ECL development were quantified by densitometry (GelQuant.NET software provided by biochemlabsolutions(dot)com).
It is known that in the presence of extracellular zinc NAP protects MT against degradation by promoting Tau binding to the MT shaft. Polymerized vs. soluble tubulin assay was effected to compare protective activities of NAP and SKIP against MT degradation and Tau-MT dissociation (FIGS. 11F-G). After treatments with zinc (400 μM, 4 h) with and without NAP or SKIP (10^−12M, 4 h) the cellular-tubulin pool was separated into polymerized and soluble tubulin fractions. The amount of Tau, tubulin, and actin was identified by immunoblotting (FIG. 11F), followed by densitometric quantification (FIG. 11G).

## SKIP
[1]
  EB3 track length and speed: increased EB3 track length and speed
[2]
  Tau immobile fraction (Tau-MT interaction) in the presence of zinc: prevented zinc adverse effect
[3]
  protection against Tau dissociation from MTs (soluble Tau ratio): only NAP exhibited protection against Tau dissociation from MTs
  protection of polymerized tubulin against zinc: protected against zinc-induced decay
